Data on eight molecules can be found in patent US20260027226A1 (Pheon Therapeutics Ltd, priority 2022, published 2026).

Entries after “also recorded” stand apart in the source; their conditions may differ.

For data set [1], the system named is linear double-stranded TyrT fragment. Nature of the data set: DNA cross-linking assay. Format: biochemical. The following applies: overnight incubation at 37° C., 10 μM to 0.1 nM. How it is done:
After overnight incubation, the samples were mixed with 7 μL loading solution (80% formamide containing 10 mM EDTA, 10 mM NaOH, 0.1% bromophenol blue) and incubated at 65° C. for 5 min. Control 1 (C1) for native double-stranded DNA consisted of 1.5 μL labelled DNA, 1.5 μL 10 mM Tris-HCl, pH 7.5 containing 0.1 mM EDTA and 7 μL 1× loading dye. Control 2 (C2) for denatured native single-stranded DNA was composed of 1.5 μL labelled DNA, 1.5 μL 10 mM Tris-HCl, pH 7.5 containing 0.1 mM EDTA which was incubated at 65° C. for 5 min. Control 3 (C3) for native double-stranded DNA consisted of 1.5 μL labelled DNA, 1.5 μL 10 mM Tris-HCl, pH 7.5 containing 0.1 mM EDTA and 7 μL SSB. Control 4 (C4) for denatured native single-stranded DNA was composed of 1.5 μL labelled DNA, 1.5 μL 10 mM Tris-HCl, pH 7.5 containing 0.1 mM EDTA and 7 μL SSB which was incubated at 65° C. for 5 min. Separation was performed on a 7.5% denaturing polyacrylamide gel (20 cm long, 0.3 mm thick) at 500V for about 4 h until the dye reached the bottom of the gel. The gel plates were then separated, the gels fixed by immersing in 10% (v/v) acetic acid, followed by transfer to Whatmann 3 MM paper and drying under vacuum at 80° C. […]
The ability of 26 to cross-link DNA was evaluated using an assay involving a linear double-stranded TyrT fragment (FIG. 17). […]

Another data set has as its system HexA DNA fragment. As to the kind of experiment: DNA footprinting. Format: binding. The following applies: for DNA-binding site sequence: X any base, W adenine or thymine. On the procedure:
Footprinting reactions were performed as using previously described methods using the DNA fragments HexA and HexB, which together contain all 64 symmetrical hexanucleotide sequences, and MS1 that contains all possible […] tetranucleotide sequences. The DNA fragments were obtained by cutting the parent plasmids with HindIII and SacI (for HexA and MS1) or EcoRI and PstI (for HexB), and were labelled at the “-end of the HindIII or EcoRI sites with [α-^32P]dATP using reverse transcriptase or exo− Klenow fragment. After gel purification, the radiolabelled DNA was dissolved in 10 mM Tris-HCl pH 7.5 containing 0.1 mM EDTA, at a concentration of about 10 c.p.s per μL as determined on a hand held Geiger counter. 1.5 μL of radiolabelled DNA was mixed with 1.5 μL ligand that had been freshly diluted in 10 mM Tris-HCl pH 7.5, containing 10 mM NaCl. The complexes were left to equilibrate for at least 12 hours before digesting with 2 μL dNase I (final concentration about 0.01 units/mL). The reactions were stopped after 1 minute by adding 4 μL of formamide containing 10 mM EDTA and bromophenol blue (0.1% w/v). The samples were then heated at 100° C. for 3 minutes before loading onto 8% denaturing polyacrylamide gels containing 8 M urea. Gels were fixed in 10% acetic acid, transferred to 3 MM paper, dried and exposed to a phosphor screen overnight, before analysing with a Typhoon phosphorimager
The DNA sequence selectivity profile of the molecules was investigated using a modification of a previously established DNA footprinting assay. Following an overnight incubation of the ligand-DNA complexes, the mixture was mixed with strand separation buffer containing 10 mM EDTA, 10 mM NaOH, 0.1% bromophenol blue, 80% formamide and incubated at 100° C. for 3 min. The mixture was then immediately cooled on ice and run on an 8% denaturing gel. […] The possible adducts formed within the HexA sequences are shown in FIGS. 20 and 21, respectively.

Data set [2] is described as follows: Comparative repeat-dose rat toxicity study. The format is in vivo. Particulars: DAR 8 on Trastuzumab backbone, 20 or 60 mg/kg; for tolerability: IV once every 3 weeks, two doses.
Data set [3] is described as follows: Control incubation in buffer without S9. Format: in vitro ADME.
Description: The control incubations include each ADC without the addition of S9.
For data set [4] the following is noted: cited from earlier work.
The nature of data set [5]: Buffer without S9 (50 mM Na-acetate, pH 5.0). Particulars: 37° C., up to 24 h.
A short description of data set [6]: Pooled liver S9 fraction, 50 mM Na-acetate, pH 5.0. Particulars: 37° C., up to 24 h.
For the next data set, the system named is Papain. As to the kind of experiment: Papain (a Cathepsin B surrogate). Particulars: up to 96 hours.

Regarding `COc1cc2c(cc1OCCCC(=O)Nc1cc(C(=O)Nc3ccc(-c4cc(C(=O)Nc5ccc(N)cc5)n(C)c4)cc3)n(C)c1)N=C[C@@H]1CCCCN1C2=O` [Formula 26, (S)—N-(4-aminophenyl)-4-(4-(4-(4-((2-methoxy-12-oxo-6a,7,8,9,10,12-hexahydrobenzo[e]pyrido[1,2-a][1,4]diazepin-3-yl)oxy)butanamido)-1-methyl-1H-pyrrol-2-carboxamido)phenyl)-1-methyl-1H-pyrrol-2-carboxamide], the DNA interstrand cross-linking entry in data set [1] is “Cross-links are not detectable at any concentration”. Further, the “preferred binding sites in HexA” value in the data set with HexA DNA fragment (DNase I footprinting) is listed as “only five preferred sites”. Besides, the DNA-binding site sequence result with HexA DNA fragment is listed as “XGXWWWW”.

Consider `CC[C@@]1(O)C(=O)OCc2c1cc1n(c2=O)Cc2c-1nc1cc(F)c(C)c3c1c2[C@@H](NC(=O)CO)CC3` [Dxd, reference compound], for which, in data set [2], the tolerability result is listed as “well tolerated”.

In the case of `CC[C@@]1(O)C(=O)OCc2c1cc1n(c2=O)Cc2c-1nc1cc(F)c(C)c3c1c2[C@@H](NC(=O)[C@H](C)NC(=O)[C@@H](NC(=O)CCOCCOCCOCCOCCOCCOCCOCCOCCNC(=O)CCN1C(=O)C=CC1=O)C(C)C)CC3` [Compound 30, 1-(3-(2,5-Dioxo-2,5-dihydro-1H-pyrrol-1-yl)propanamido)-N-((2S)-1-(((2S)-1-(((1S,9S)-9-ethyl-5-fluoro-9-hydroxy-4-methyl-10,13-dioxo-2,3,9,10,12,13,13a,14-octahydro-1H-benzo[de]pyrano[″,″:5,6]indeno[1,2-b]quinolin-1-yl)amino)-1-oxopropan-2-yl)amino)-3-methyl-1-oxobutan-2-yl)-3,6,9,12,15,18,21,24-octaoxaheptacosan-27-amide], the “changes in hemopoietic system / red cell parameters” value in data set [2] is listed as “negligible effects”. Moreover, the tolerability entry in data set [2] is recorded as “well tolerated”. Also, the “LC/MS peak area of released payload (exatecan; 4NH2-exatecan; DXd; DM1)” value in data set [3] (Buffer without S9, 180 min) is 26,179; in data set [3] (Buffer without S9, 360 min), 51,267; in data set [3] (Buffer without S9, 1440 min) it was 59,452.

For Adcetris, the “ADC cyno t112” value in data set [4] was 45 to 72 h.

As to `C=CCOC(=O)N1c2cc(OCCCC(=O)Nc3cc(C(=O)Nc4ccc(NC(=O)C(F)(F)F)cc4)n(C)c3)c(OC)cc2C(=O)N2CCCC[C@H]2C1OC1CCCCO1` (stereo partly drawn) [Formula 17, Allyl (6aS)-2-methoxy-3-(4-((1-methyl-5-((4-(2,2,2-trifluoroacetamido)phenyl)carbamoyl)-1H-pyrrol-3-yl)amino)-4-oxobutoxy)-12-oxo-6-((tetrahydro-2H-pyran-2-yl)oxy)-6,6a,7,8,9,10-hexahydrobenzo[e]pyrido[1,2-a][1,4]diazepine-5(12H)-carboxylate], in the data set with HexA DNA fragment, the DNA-binding site sequence entry is listed as “XGXWWWW”.

For `COc1cc2c(cc1OCCCC(=O)Nc1cc(C(=O)Nc3ccc(N)cc3)n(C)c1)N=C[C@@H]1CCCCN1C2=O` [Formula 19, (S)—N-(4-Aminophenyl)-4-(4-((2-methoxy-12-oxo-6a,7,8,9,10,12-hexahydrobenzo[e]pyrido[1,2-a][1,4]diazepin-3-yl)oxy)butanamido)-1-methyl-1H-pyrrol-2-carboxamide], in data set [1], the DNA interstrand cross-linking result is listed as “incapable of cross-linking DNA”.

As to Trastuzumab-Mal-GGFG-Dxd, the fragment found result was “DXd, minor, 0 min; also recorded: exatecan, minor” in data set [5]; “DXd, minor, 0 min; also recorded: Cys-Mc-GGFG-DXd; also recorded: exatecan, minor” in data set [6] (Cynomolgus monkey); “DXd, 0 min; also recorded: Cys-Mc-GGFG-DXd; also recorded: exatecan, minor” in data set [6] (Human).

In the case of “1-(3-(2,5-Dioxo-2,5-dihydro-1H-pyrrol-1-yl)propanamido)-N-((2S)-1-(((2S)-1-(((1S,9S)-9-ethyl-5-fluoro-9-hydroxy-4-methyl-10,13-dioxo-2,3,9,10,12,13,13a,14-octahydro-1H-benzo[de]pyrano[″,″:5,6]indeno[1,2-b]quinolin-1-yl)amino)-1-oxopropan-2-yl)amino)-3-methyl-1-oxobutan-2-yl)-3,6,9,12,15,18,21,24-octaoxaheptacosan-27-amide”, in the data set with Papain, the fragment found entry is given as “Val-Ala-Exatecan” and the not cleaved entry was “the free payload was not liberated”.
